Reference: article doi:10.1101/2023.10.25.564053v1 (biorxiv, 2023)

Key:
[1] = target: BsAK (Bacillus subtilis, UniProt P16304); assay: microscale thermophoresis, amine-labelled protein; assay type: binding
[2] = target: GsAK (Geobacillus stearothermophilus, UniProt P27142); assay: microscale thermophoresis, amine-labelled protein; assay type: binding
Sequence of GsAK (P27142 whole entry): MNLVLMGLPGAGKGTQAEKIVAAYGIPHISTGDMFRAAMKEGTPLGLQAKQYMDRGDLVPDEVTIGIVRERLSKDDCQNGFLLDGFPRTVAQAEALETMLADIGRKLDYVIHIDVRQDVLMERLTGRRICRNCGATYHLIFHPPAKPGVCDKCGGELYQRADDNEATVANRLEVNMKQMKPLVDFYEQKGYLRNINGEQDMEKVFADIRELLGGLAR

Sequence of BsAK (P16304 whole entry): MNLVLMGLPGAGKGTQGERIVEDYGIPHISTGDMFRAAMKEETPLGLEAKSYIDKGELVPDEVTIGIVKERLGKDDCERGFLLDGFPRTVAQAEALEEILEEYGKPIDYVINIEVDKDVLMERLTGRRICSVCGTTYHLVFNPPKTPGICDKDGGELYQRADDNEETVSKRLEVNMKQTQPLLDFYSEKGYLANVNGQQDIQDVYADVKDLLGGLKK

For `Nc1ncnc2c1ncn2[C@@H]1O[C@H](COP(=O)(O)OP(=O)(O)OP(=O)(O)OP(=O)(O)OP(=O)(O)OC[C@H]2O[C@@H](n3cnc4c(N)ncnc43)[C@H](O)[C@@H]2O)[C@@H](O)[C@H]1O` [Ap5A], the Kd [1] was 25.1 ± 1.1 nM and the Kd [2] was 17 ± 5.7 nM.
